pIC50: −log10 of the molar value. Structures can show the parent of a compound that is named as a salt.

The first assay has as its system HIV-1 (JRCSF). Description: Anti-HIV activity in MaRBLE cells infected with HIV-1 (JRCSF), luciferase readout. It counts as cell-based. As to conditions: Human immunodeficiency virus 1, 168 h, read-out: Anti-HIV activity IC50. The method in brief:
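HPB-M(a)-derived MaRBLE cells carrying HIV-1 LTR-luciferase and CCR5, infected with HIV-1 JRCSF, 1×10^5 cells/well in RPMI1640/10% FCS, cultured 7 days at 37 °C. Luciferase read; proliferation % relative to compound-free wells minus uninfected background; IC50 by linear regression on log concentration.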
Regarding `Cc1ncnc2c1c(NCCCN(C)C)cc(=O)n2O` [Example 155, 5-((3-(dimethylamino)propyl)amino)-8-hydroxy-4-methylpyrido[2,3-d]pyrimidin-7(8H)-one hydrochloride], the pIC50 is 6.64.

Still in this assay, the particulars now being: Human immunodeficiency virus 1, 168 h; MaRBLE cells (human T lymphocyte-derived HPB-M(a)) infected with HIV-1 (JRCSF); 7 days culture; rate of viral proliferation by luciferase activity; read-out: Anti-HIV activity IC50.
Regarding `Cc1ncnc2c1c(NCc1ccc(NS(=O)(=O)c3ccccc3)cc1)cc(=O)n2O` [Example 145, N-(4-(((8-hydroxy-4-methyl-7-oxo-7,8-dihydropyrido[2,3-d]pyrimidin-5-yl)amino)methyl)phenyl)benzenesulfonamide], the pIC50 was 6.31.
Regarding `Cc1ncnc2c1c(NCc1cccnc1OCC(F)(F)F)cc(=O)n2O` [Example 147, 8-hydroxy-4-methyl-5-(((2-(2,2,2-trifluoroethoxy)pyridin-3-yl)methyl)amino)pyrido[2,3-d]pyrimidin-7(8H)-one], the pIC50 is 7.08.
Turning to `Cc1ncnc2c1c(NCc1ccc(C(F)(F)F)cc1)cc(=O)n2O` [Example 148, 8-hydroxy-4-methyl-5-((4-(trifluoromethyl)benzyl)amino)pyrido[2,3-d]pyrimidin-7(8H)-one], the pIC50 is 7.15.
On to `Cc1ncnc2c1c(NCc1ccccc1C(F)(F)F)cc(=O)n2O` [Example 149, 8-hydroxy-4-methyl-5-((2-(trifluoromethyl)benzyl)amino)pyrido[2,3-d]pyrimidin-7(8H)-one], for which the pIC50 is 7.59.
Still for that read-out and setting: the same measure for `Cc1ncnc2c1c(NCc1ccccn1)cc(=O)n2O` [Example 150, 8-hydroxy-4-methyl-5-(((pyridin-2-yl)methyl)amino)pyrido[2,3-d]pyrimidin-7(8H)-one]: 7.00.
On the same count and under the same terms, the same measure for `Cc1ncnc2c1c(NCc1cccc(F)c1)cc(=O)n2O` [Example 151, 5-((3-fluorobenzyl)amino)-8-hydroxy-4-methylpyrido[2,3-d]pyrimidin-7(8H)-one]: 7.27; for `Cc1ncnc2c1c(NCc1ccc(C(C)C)cc1)cc(=O)n2O` [Example 152, 8-hydroxy-5-((4-isopropylbenzyl)amino)-4-methylpyrido[2,3-d]pyrimidin-7(8H)-one]: 7.02.
Still for that read-out and setting: with `Cc1ncnc2c1c(NCc1ccco1)cc(=O)n2O` [Example 153, 5-((2-furylmethyl)amino)-8-hydroxy-4-methylpyrido[2,3-d]pyrimidin-7(8H)-one] the figure was 6.89; with `Cc1ncnc2c1c(NCc1ncc[nH]1)cc(=O)n2O` [Example 154, 8-hydroxy-5-(((1H-imidazol-2-yl)methyl)amino)-4-methylpyrido[2,3-d]pyrimidin-7(8H)-one], 6.14; with `Cc1ncnc2c1c(NCC1CCN(C)CC1)cc(=O)n2O` [Example 156, 8-hydroxy-4-methyl-5-(((1-methylpiperidin-4-yl)methyl)amino)pyrido[2,3-d]pyrimidin-7(8H)-one], 6.23.
`COc1ncccc1CNc1cc(=O)n(O)c2ncnc(C)c12` [Example 157, 8-hydroxy-5-(((2-methoxypyridin-3-yl)methyl)amino)-4-methylpyrido[2,3-d]pyrimidin-7(8H)-one]: the pIC50 is 7.36.
Same read-out and setting: with `COc1ccc(CNc2cc(=O)n(O)c3ncnc(C)c23)cn1` [Example 158, 8-hydroxy-5-(((2-methoxypyridin-5-yl)methyl)amino)-4-methylpyrido[2,3-d]pyrimidin-7(8H)-one] the figure was 7.13.
Same read-out and setting: the same measure for `Cc1ncnc2c1c(NCc1ccccc1OC(F)(F)F)cc(=O)n2O` [Example 160, 8-hydroxy-4-methyl-5-((2-(trifluoromethoxy)benzyl)amino)pyrido[2,3-d]pyrimidin-7(8H)-one]: 7.17; for `Cc1ncnc2c1c(NCCCc1cccnc1)cc(=O)n2O` [Example 161, 8-hydroxy-4-methyl-5-((3-(pyridin-3-yl)propyl)amino)pyrido[2,3-d]pyrimidin-7(8H)-one]: 6.74.
The same measure, in the same setting: with `Cc1ncnc2c1c(NCc1ccc(N)nc1)cc(=O)n2O` [Example 162, 5-(((6-aminopyridin-3-yl)methyl)amino)-8-hydroxy-4-methylpyrido[2,3-d]pyrimidin-7(8H)-one] the figure was 7.17; with `Cc1ncnc2c1c(NC(C)c1ccccn1)cc(=O)n2O` (stereo not drawn) [Example 165, 8-hydroxy-4-methyl-5-((1-(pyridin-2-yl)ethyl)amino)pyrido[2,3-d]pyrimidin-7(8H)-one], 6.80.

Still in this assay, the particulars now being: MaRBLE cells (human T lymphocyte-derived HPB-M(a)) infected with HIV-1 (JRCSF); 7 days culture; rate of viral proliferation by luciferase activity; read-out: Anti-HIV activity IC50.
Take `Cc1ncnc2c1c(NCc1ccc(Oc3ccccc3)nc1)cc(=O)n2O` [Example 146, 8-hydroxy-4-methyl-5-(((6-phenoxypridin-3-yl)methyl)amino)pyrido[2,3-d]pyrimidin-7(8H)-one]: the pIC50 is 7.00.

Broadly, the pIC50 is −log10 of the IC50, conventionally taken in molar units.

The values are drawn from US20150018546A1, “HETEROCYCLIC COMPOUND HAVING ANTI-HIV ACTIVITY” (TOYAMA CHEMICAL CO., LTD., priority 2012, published 2015).
